Measurements taken from ChEMBL document CHEMBL5131375, “Recent Developments in the Use of Kinase Inhibitors for Management of Viral Infections” (J Med Chem, 2022).

Legend:
[1] = test system: Human betaherpesvirus 5; experiment: Antiviral activity against HCMV Merlin (RCMV 1111) infected in HFF cells incubated for 96 hrs; type: functional, organism-based; conditions: Human betaherpesvirus 5, Merlin (RCMV 1111)
[2] = test system: Human betaherpesvirus 5; experiment: Antiviral activity against HCMV AD169 infected in HFF cells incubated for 96 hrs; type: functional, organism-based; conditions: Human betaherpesvirus 5, AD169, HFF
[3] = test system: Human betaherpesvirus 5; experiment: microbe, parasite or virus in culture; type: functional, organism-based
[4] = test system: dengue virus type 3; experiment: microbe, parasite or virus in culture; type: functional, organism-based
[5] = test system: dengue virus type 4; experiment: microbe, parasite or virus in culture; type: functional, organism-based
[6] = in vitro; conditions: human, Huh-7.5.1 cells
[7] = test system: dengue virus type 1; experiment: microbe, parasite or virus in culture; type: functional, organism-based
[8] = test system: dengue virus type 2; experiment: microbe, parasite or virus in culture; type: functional, organism-based
[9] = Cytotoxicity against 24ST1NLESG cells (unknown origin); type: toxicity, cell-based
[10] = test system: Human alphaherpesvirus 1; experiment: Antiviral activity against HSV-1 KOS strain infected in 1 hr pretreated mouse L929 cells assessed as cell viability by cell titre-glo luminescent kit method; type: functional, organism-based; conditions: Human alphaherpesvirus 1, KOS
[11] = test system: Human alphaherpesvirus 1; experiment: Antiviral activity against HSV-1-induced necrosis; type: functional, organism-based
[12] = test system: Hepatitis C virus; experiment: microbe, parasite or virus in culture
[13] = in vitro; conditions: human
[14] = test system: Hepatitis C virus; experiment: microbe, parasite or virus in culture; remark: listed apart in the source
[15] = test system: Influenza A virus; experiment: microbe, parasite or virus in culture; type: functional, organism-based; conditions: H3N2
[16] = test system: Influenza A virus; experiment: microbe, parasite or virus in culture; type: functional, organism-based; conditions: pdmH1N1
[17] = test system: Influenza A virus; experiment: Antiviral activity against influenza A virus HN79; type: functional, organism-based
[18] = Cytotoxicity against human A549 cells; type: toxicity, cell-based
[19] = test system: Influenza A virus; experiment: microbe, parasite or virus in culture; type: functional, organism-based
[20] = molecular target: Cyclin-dependent kinase 9 (Homo sapiens, UniProt P50750); experiment: Inhibition of CDK9 (unknown origin) incubated for 2 hrs by measuring remaining ATP
[21] = test system: Hepatitis B virus; experiment: Antiviral activity against HBV infected in human HepG2-hNTCP cells; type: functional, organism-based
[22] = test system: Human alphaherpesvirus 1; experiment: In vivo antiviral activity against HSV-1 infected in organism (unknown origin) assessed as suppression of skin lesions at 10% ointment treatment; type: functional
[23] = in vitro; conditions: human, HeLa cells
[24] = test system: Human alphaherpesvirus 1; experiment: microbe, parasite or virus in culture; type: functional, organism-based
[25] = test system: Hepatitis B virus; experiment: microbe, parasite or virus in culture; type: functional, organism-based; conditions: Hepatitis B virus
[26] = Cytotoxicity against human HepG2 cells; type: toxicity, cell-based
[27] = test system: Human alphaherpesvirus 1; experiment: Antiviral activity against ACV-resistant HSV-1 in African green monkey Vero cells measured after 2 days; type: functional, organism-based; conditions: Human alphaherpesvirus 1, Vero, 48 h
[28] = test system: Zaire ebolavirus; experiment: microbe, parasite or virus in culture; type: functional, organism-based; conditions: dose 5 µM
[29] = Cytotoxicity against human MCF7 cells; type: toxicity, cell-based
[30] = Cytotoxicity against human PC-3 cells; type: toxicity, cell-based
[31] = test system: Chikungunya virus; experiment: microbe, parasite or virus in culture; type: functional, organism-based
[32] = in vitro; conditions: chlorocebus sabaeus, Vero cells
[33] = test system: Junin virus; experiment: microbe, parasite or virus in culture; type: functional, organism-based; conditions: Mammarenavirus juninense
[34] = test system: Human alphaherpesvirus 1; experiment: Antiviral activity against HSV-1 at 10 uM relative to control; type: functional
[35] = test system: SARS-CoV-2; experiment: Antiviral activity against SARS-CoV-2 assessed as reduction of viral load at 400 nM relative to control; type: functional, Severe acute respiratory syndrome coronavirus 2; set-up: scale not given: the % may be the effect or the level left
[36] = test system: SARS-CoV-2; experiment: Antiviral activity against SARS-CoV-2 assessed as reduction of viral load at 400 to 800 nM; type: functional, Severe acute respiratory syndrome coronavirus 2; set-up: scale not given: the % may be the effect or the level left; conditions: dose 400-800 nM
[37] = Cytotoxicity against liver spheroids (unknown origin); type: toxicity, tissue-based
[38] = molecular target: AP2-associated protein kinase 1 (Homo sapiens, UniProt Q2M2I8)
[39] = Cytotoxicity against osteoblast cells (unknown origin); type: toxicity, cell-based, Calvarial osteoblast
[40] = in vitro; conditions: human, sertoli cell
[41] = test system: Zika virus; experiment: Antiviral activity against ZIKV at 1 uM relative to control; type: functional
[42] = test system: Vero C1008; experiment: Cytotoxicity against African green monkey Vero E6 cells at 250 nM; type: toxicity, cell-based; conditions: chlorocebus sabaeus, vero c1008, 0.25 µM
[43] = test system: SARS-CoV-2; experiment: microbe, parasite or virus in culture; type: functional, organism-based; conditions: Severe acute respiratory syndrome coronavirus 2
[44] = test system: SARS-CoV-2; experiment: microbe, parasite or virus in culture; type: functional, organism-based; conditions: Severe acute respiratory syndrome coronavirus 2; remark: listed apart in the source
[45] = test system: Influenza A virus; experiment: Antiviral actiivty against Influenza A (A/Regensburg/D6/2009 (H1N1)) infected in human A549 cells; type: functional, organism-based

AP2-associated protein kinase 1, sequence (Q2M2I8 whole entry): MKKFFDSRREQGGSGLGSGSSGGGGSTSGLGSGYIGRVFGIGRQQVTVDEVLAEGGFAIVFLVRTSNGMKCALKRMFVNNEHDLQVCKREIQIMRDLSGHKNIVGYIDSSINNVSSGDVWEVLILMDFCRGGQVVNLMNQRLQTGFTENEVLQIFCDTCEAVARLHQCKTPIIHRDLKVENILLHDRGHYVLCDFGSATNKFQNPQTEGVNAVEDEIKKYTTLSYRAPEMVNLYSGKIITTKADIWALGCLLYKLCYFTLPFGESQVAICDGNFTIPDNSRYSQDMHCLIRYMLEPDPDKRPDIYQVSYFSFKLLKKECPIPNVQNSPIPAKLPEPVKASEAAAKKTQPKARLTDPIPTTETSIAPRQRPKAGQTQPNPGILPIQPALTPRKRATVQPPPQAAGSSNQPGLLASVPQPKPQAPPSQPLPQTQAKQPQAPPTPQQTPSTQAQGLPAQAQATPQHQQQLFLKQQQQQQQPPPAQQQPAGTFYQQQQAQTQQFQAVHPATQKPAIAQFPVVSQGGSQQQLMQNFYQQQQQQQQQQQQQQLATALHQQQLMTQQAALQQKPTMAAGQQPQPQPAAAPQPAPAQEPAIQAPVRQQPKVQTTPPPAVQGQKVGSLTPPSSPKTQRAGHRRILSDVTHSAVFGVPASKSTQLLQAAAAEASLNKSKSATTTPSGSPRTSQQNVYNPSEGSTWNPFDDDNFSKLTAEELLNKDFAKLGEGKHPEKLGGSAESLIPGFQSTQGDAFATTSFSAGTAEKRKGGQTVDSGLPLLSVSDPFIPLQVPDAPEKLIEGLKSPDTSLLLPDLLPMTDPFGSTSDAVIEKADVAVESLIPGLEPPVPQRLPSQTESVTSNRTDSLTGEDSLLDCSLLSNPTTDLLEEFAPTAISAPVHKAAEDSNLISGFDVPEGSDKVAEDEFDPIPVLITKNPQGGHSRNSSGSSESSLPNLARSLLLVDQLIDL
Cyclin-dependent kinase 9, sequence (P50750 whole entry): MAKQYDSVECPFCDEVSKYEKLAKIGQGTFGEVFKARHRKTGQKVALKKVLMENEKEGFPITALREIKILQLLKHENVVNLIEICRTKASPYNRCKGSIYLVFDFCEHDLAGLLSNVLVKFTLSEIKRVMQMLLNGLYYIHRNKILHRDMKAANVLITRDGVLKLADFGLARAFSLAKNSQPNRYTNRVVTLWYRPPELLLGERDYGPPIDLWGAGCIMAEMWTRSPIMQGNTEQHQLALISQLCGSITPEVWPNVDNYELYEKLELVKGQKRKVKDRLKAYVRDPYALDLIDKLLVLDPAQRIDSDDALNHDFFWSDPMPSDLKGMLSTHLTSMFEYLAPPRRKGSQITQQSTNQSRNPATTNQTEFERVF

**Q.** What does the source list for COc1cc[nH]c1/C=C1\C(=O)Nc2ccc([N+](=O)[O-])c(N3CC[C@@H](O)C3)c21?
**A.** EC50 [1]: 1.3 µM; EC50 [2]: 0.01 µM; EC50 [3]: 0.01 µM

**Q.** What does the source list for COc1ccc(CC(N)c2csc(Nc3ncccn3)n2)cc1 (stereo not drawn)?
**A.** EC50 [4]: 2.6 µM; EC50 [5]: 5 µM; CC50 [6]: > 100 µM; EC50 [7]: 0.9 µM; EC50 [8]: 7.6 µM

**Q.** With O=C1NCCc2[nH]c(-c3ccncc3)cc21 as the compound, how does the CC50 [9] read?
**A.** The CC50 was 1 µM.

**Q.** And the IC50 [10]?
**A.** The IC50 was 1.86 µM.

**Q.** And the IC50 [11]?
**A.** Its IC50 is 1.86 µM.

**Q.** Which EC50 [12] does the source give for Cc1nc2c(NCc3cccc(S(C)(=O)=O)c3)nccn2c1-c1ccc(O)c(F)c1 here?
**A.** The EC50 was 0.1 µM.

**Q.** What about the CC50 ([13]; huh-7) of the same compound?
**A.** The CC50 was greater than 30 µM.

**Q.** What about the EC50 [14] of the same compound?
**A.** The EC50 was 0.1 µM.

**Q.** Which IC50 [15] does the source give for Cc1ccc([N+](=O)[O-])cc1S(=O)(=O)N(C)/N=C/c1cnc2ccc(Br)cn12 here?
**A.** The IC50 was 0.04 µM.

**Q.** And the IC50 [16]?
**A.** The IC50 was 0.04 µM.

**Q.** What about the IC50 [17] of the same compound?
**A.** The IC50 was 0.04 µM.

**Q.** What about the CC50 [18] of the same compound?
**A.** The CC50 was greater than 100 µM.

**Q.** What about the IC50 [19] of the same compound?
**A.** Its IC50 is 0.04 µM.

**Q.** For Fc1ccc(N2CCCCC2)c(NC(=S)c2ccncc2)c1, which IC50 [20] is on record?
**A.** The IC50 was 5.8 µM.

**Q.** What about the IC50 [21] of the same compound?
**A.** The IC50 was 0.33 µM.

**Q.** And the Activity [22]?
**A.** Its Activity is 100%.

**Q.** What about the CC50 [23] of the same compound?
**A.** The CC50 was greater than 10 µM.

**Q.** And the EC50 [24]?
**A.** The EC50 was 0.69 µM.

**Q.** What about the EC50 [25] of the same compound?
**A.** The EC50 was 0.33 µM.

**Q.** And the CC50 [26]?
**A.** The CC50 was greater than 50 µM.

**Q.** And the IC50 [27]?
**A.** The IC50 was 0.69 µM.

**Q.** Which inhibition at 5 µM [28] does the source give for Ic1cccc(/C=N/Nc2nc(N3CCOCC3)nc(N(c3ccccc3)c3ccccc3)n2)c1 here?
**A.** Its inhibition at 5 µM is 100%.

**Q.** What about the CC50 [29] of the same compound?
**A.** Its CC50 is greater than 10 µM.

**Q.** And the CC50 [30]?
**A.** Its CC50 is greater than 10 µM.

**Q.** What does the source list for CC(C)c1ccc(NC(=O)c2csc(C(O)C(C)C)n2)cc1 (stereo not drawn)?
**A.** EC50 [31]: 2.2 µM; CC50 ([13]; Huh-7 cells): > 50 µM

**Q.** For C/C(O)=C(/C#N)C(=O)Nc1ccc(C(F)(F)F)cc1, which CC50 [18] is on record?
**A.** The CC50 was greater than 100 µM.

**Q.** What about the CC50 [32] of the same compound?
**A.** Its CC50 is 223 µM.

**Q.** And the EC50 [33]?
**A.** Its EC50 is 16 µM.

**Q.** For O=C(Nc1c[nH]nc1-c1nc2ccc(CN3CCOCC3)cc2[nH]1)NC1CC1 [AT-9283], which Activity [34] is on record?
**A.** The Activity was 70%.

**Q.** Which results are given for CCS(=O)(=O)N1CC(CC#N)(n2cc(-c3ncnc4[nH]ccc34)cn2)C1 [BARICITINIB]?
**A.** Activity [35]: 30%; Activity [36]: 30%; CC50 [37]: > 5 µM; IC50 [38]: 0.017 µM; CC50 [39]: > 50 µM

**Q.** What does the source list for Nc1nc(Nc2ccc3c(c2)CC[C@@H](N2CCCC2)CC3)nn1-c1cc2c(nn1)-c1ccccc1CCC2 [BEMCENTINIB]?
**A.** CC50 [40]: > 10 µM; Activity [41]: 75%

**Q.** What does the source list for CNCc1ccc(-c2cc(-c3nc(-c4ccc(S(=O)(=O)C(C)C)cc4)cnc3N)on2)cc1 [BERZOSERTIB]?
**A.** Activity [42]: Non-Toxic; IC50 [43]: 0.00428 µM; IC50 [44]: 0.00428 µM

**Q.** For O=C(NOCC1CC1)c1ccc(F)c(F)c1Nc1ccc(I)cc1Cl [CI-1040], which EC50 [45] is on record?
**A.** Its EC50 is 0.026 µM.

**Q.** And the CC50 [18]?
**A.** Its CC50 is 312 µM.
